Source: the NIST ThermoML archive (doi:10.1021/je400054m)
± gives the expanded uncertainty stated by the source.

Experiments:
[1] = DTA
[2] = Molar enthalpy of transition or fusion; details: DSC

Normal melting temperature ([1]; Crystal 1) | Triple point temperature ([1]; Crystal 2) | Molar enthalpy of transition or fusion ([2]; Crystal 1) | Molar enthalpy of transition or fusion ([2]; Crystal 2) | Normal melting temperature ([1]; Crystal) | Molar enthalpy of transition or fusion ([2]; Crystal) | Triple point temperature ([1]; Crystal 3) | Molar enthalpy of transition or fusion ([2]; Crystal 3) | SMILES
274.40 ± 0.7 °C | 316.55 ± 0.7 K | 5.93 ± 0.382 kcal/mol | 1.49 ± 0.1 kcal/mol |  |  |  |  | CCCCCCC(=O)[O-].[Li+] [lithium heptanoate]
235.50 ± 0.7 °C | 364.55 ± 0.7 K | 6.76 ± 0.43 kcal/mol | 3.3 ± 0.21 kcal/mol |  |  |  |  | CCCCCCCCCCC(=O)[O-].[Li+] [lithium undecanoate]
251.10 ± 0.7 °C | 348.95 ± 0.7 K | 6.13 ± 0.382 kcal/mol | 1.92 ± 0.129 kcal/mol |  |  |  |  | CCCCCCCCC(=O)[O-].[Li+] [lithium nonanoate]
 |  |  |  | 283.10 ± 0.7 °C | 2.87 ± 0.186 kcal/mol |  |  | CC(=O)[O-].[Li+] [lithium acetate]
 |  |  |  | 264.30 ± 0.7 °C | 5.73 ± 0.359 kcal/mol |  |  | CCCCCCCC(=O)[O-].[Li+] [lithium octanoate]
 |  |  |  | 287.20 ± 0.7 °C | 5.49 ± 0.359 kcal/mol |  |  | CCCCCC(=O)[O-].[Li+] [lithium hexanoate]
 |  |  |  | 316.80 ± 0.7 °C | 4.96 ± 0.311 kcal/mol |  |  | CCCC(=O)[O-].[Li+] [lithium butanoate]
 | 309.65 ± 0.7 K |  | 0.111 ± 0.0287 kcal/mol |  |  |  |  | CCCCCCCCCC(=O)[O-].[Li+] [lithium decanoate]
272.20 ± 0.7 °C | 508.55 ± 0.7 K | 3.84 ± 0.239 kcal/mol | 0.451 ± 0.043 kcal/mol |  |  |  |  | O=C[O-].[Li+] [lithium methanoate]
301.10 ± 0.7 °C | 323.45 ± 0.7 K | 5.25 ± 0.335 kcal/mol | 0.941 ± 0.0693 kcal/mol |  |  |  |  | CCCCC(=O)[O-].[Li+] [lithium pentanoate]
331.00 ± 0.7 °C | 530.55 ± 0.7 K | 3.81 ± 0.239 kcal/mol | 0.817 ± 0.0645 kcal/mol |  |  |  |  | CCC(=O)[O-].[Li+] [propionic acid, lithium salt]
227.40 ± 0.7 °C | 346.05 ± 0.7 K | 6.78 ± 0.43 kcal/mol | 1.66 ± 0.112 kcal/mol |  |  | 314.45 ± 0.7 K | 0.138 ± 0.0335 kcal/mol | CCCCCCCCCCCC(=O)[O-].[Li+] [lithium dodecanoate]
